Plasma lutein concentration data for one compound are collected here from patent publication US9622970B2, “Pharmaceutical composition containing lutein and antioxidant for treating and preventing human disease” (priority 2014, dated 2017).

Each structure is given as a SMILES string.

This series can be described thus: Plasma lutein concentration in chickens fed lutein or preparation of lutein (HPLC). Type of series: in vivo, chicken. The note with it: diet with 15 mg lutein/kg for 15 days. The method, then: Chickens (50), weighing 1.0±0.2 kg, were randomly divided into two treatments, with 25 chickens each. Chickens were individually housed in cages measuring 0.2×0.2 m, and were submitted to a lighting program of 16 h light/day. Chickens were kept under a temperature of 20±5° C. Feed and water were supplied ad libitum.
After two weeks of washout period, when the chickens were fed lutein or preparation of lutein with basal diet, two groups were fed the basal diets lutein or preparation of lutein for a period of 15 days. Lutein contents were determined using a HPLC method. The basal diet contained 0.5 mg lutein/kg. The two diets were formulated to contain the same level of 15 mg lutein/kg. All feeds were prepared every day.
Morning blood samples were taken on day 0, and days 3, 6, 12 for lutein analysis. The number of eggs laid by each chicken was counted during the experiment. Blood samples were obtained by puncture of the vena ulnaris. One milliliter of blood was sampled from each chicken. The plasma was separated by centrifugation. Plasma lutein concentrations have been detected. […]
A single gradient-type HPLC system was used for the parallel analysis of plasma concentration of lutein. The HPLC systems consisted of two solvent-delivery systems detected with a 436-nm and a 280-nm filter. The samples were analyzed by HPLC method. Lutein was quantified by determining the peak area at 445 nm. […]

As to `CC1=C[C@H](O)CC(C)(C)[C@H]1/C=C/C(C)=C/C=C/C(C)=C/C=C/C=C(C)/C=C/C=C(C)/C=C/C1=C(C)C[C@@H](O)CC1(C)C` [Lutein, lutein], the Plasma lutein concentration amounted to 1.20 ± 0.10 μg lutein/ml.
